Results published in PubChem BioAssay AID2060620 (Molecular Pharmacology Branch, DTP, NCI, 2025).

Tested on: 328373-195-R-J1-PDC complex spheroids, viability % test/control
Test: Anticancer human tumor 328373-195-R-J1-PDC patient-derived head and neck squamous carcinoma cell line growth inhibition [CLK]
Conditions: for IC50: curve of first compound; for viability, T/C: stronger effect = lower value; active = viability on the fitted dose curve at most 10% of control; inactive = the rest
Procedure, shortened: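 Patient-derived tumor cells grown as complex spheroids with HUVEC endothelial cells and mesenchymal stem cells, treated with drug combinations. Concentrations descend in half-log steps from near clinical Cmax, or from 10 microM if Cmax unknown.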

[1] = second compound 0.0316 µM, first compound 0.0316 µM
[2] = second compound 0.0316 µM, first compound 0.1 µM
[3] = second compound 0.0316 µM, first compound 0.316 µM
[4] = second compound 0.0316 µM, first compound 1 µM
[5] = second compound 0.0316 µM, first compound 3.16 µM
[6] = second compound 0.0316 µM, first compound 10 µM
[7] = second compound 0.1 µM, first compound 0.0316 µM
[8] = second compound 0.1 µM, first compound 0.1 µM
[9] = second compound 0.1 µM, first compound 0.316 µM
[10] = second compound 0.1 µM, first compound 1 µM
[11] = second compound 0.1 µM, first compound 3.16 µM
[12] = second compound 0.1 µM, first compound 10 µM
[13] = second compound 0.316 µM, first compound 0.0316 µM
[14] = second compound 0.316 µM, first compound 0.1 µM
[15] = second compound 0.316 µM, first compound 0.316 µM
[16] = second compound 0.316 µM, first compound 1 µM
[17] = second compound 0.316 µM, first compound 3.16 µM
[18] = second compound 0.316 µM, first compound 10 µM
[19] = second compound 1 µM, first compound 0.0316 µM
[20] = second compound 1 µM, first compound 0.1 µM
[21] = second compound 1 µM, first compound 0.316 µM
[22] = second compound 1 µM, first compound 1 µM
[23] = second compound 1 µM, first compound 3.16 µM
[24] = second compound 1 µM, first compound 10 µM
[25] = second compound 3.16 µM, first compound 0.0316 µM
[26] = second compound 3.16 µM, first compound 0.1 µM
[27] = second compound 3.16 µM, first compound 0.316 µM
[28] = second compound 3.16 µM, first compound 1 µM
[29] = second compound 3.16 µM, first compound 3.16 µM
[30] = second compound 3.16 µM, first compound 10 µM
[31] = second compound 10 µM, first compound 0.0316 µM
[32] = second compound 10 µM, first compound 0.1 µM
[33] = second compound 10 µM, first compound 0.316 µM
[34] = second compound 10 µM, first compound 1 µM
[35] = second compound 10 µM, first compound 3.16 µM
[36] = second compound 10 µM, first compound 10 µM
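Also: spheroids exposed to the agents for 7 days.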

C=CC(=O)N1CCN(c2nc(=O)n(-c3c(C)ccnc3C(C)C)c3nc(-c4c(O)cccc4F)c(F)cc23)C(C)C1 (stereo unspecified) + CNC(=O)c1ccc(Nc2nc(OC3CCCC3)c3c(-c4ccc5nc(C)oc5c4)c[nH]c3n2)c(OC)c1
> 10000 nM: IC50 (second compound 0.0316 µM)
inactive: viability, T/C [1] 57.3% | viability, T/C [2] 59.7% | viability, T/C [3] 60.2% | viability, T/C [4] 64.9% | viability, T/C [5] 65.1% | viability, T/C [6] 47.7% | viability, T/C [7] 11.2% | viability, T/C [8] 10.2% | viability, T/C [9] 11.6% | viability, T/C [10] 12.8% | viability, T/C [11] 13.2% | viability, T/C [12] 9.6% | viability, T/C [13] 8.33% | viability, T/C [14] 10.6% | viability, T/C [15] 9.38% | viability, T/C [16] 10.4% | viability, T/C [17] 13.9% | viability, T/C [18] 10.3% | viability, T/C [19] 10.1% | viability, T/C [20] 9.55% | viability, T/C [21] 9.73% | viability, T/C [22] 10.4% | viability, T/C [23] 13.2% | viability, T/C [24] 8.42% | viability, T/C [25] 10.1% | viability, T/C [26] 13.2% | viability, T/C [27] 10.9% | viability, T/C [28] 10.9% | viability, T/C [29] 15.1% | viability, T/C [30] 10.7% | viability, T/C [31] 12.8% | viability, T/C [32] 11.7% | viability, T/C [33] 12.2% | viability, T/C [34] 13.3% | viability, T/C [35] 14.5% | viability, T/C [36] 8.55%
< 31.6 nM: IC50 (second compound 0.1 µM) | IC50 (second compound 0.316 µM) | IC50 (second compound 1 µM) | IC50 (second compound 3.16 µM) | IC50 (second compound 10 µM)

CCCS(=O)(=O)Nc1ccc(F)c(C(=O)c2c[nH]c3ncc(-c4ccc(Cl)cc4)cc23)c1F + CNC(=O)c1ccc(Nc2nc(OC3CCCC3)c3c(-c4ccc5nc(C)oc5c4)c[nH]c3n2)c(OC)c1
inactive: viability, T/C [1] 61.7% | viability, T/C [2] 59.5% | viability, T/C [3] 62.4% | viability, T/C [4] 66.1% | viability, T/C [5] 56.8% | viability, T/C [6] 43.3% | viability, T/C [7] 11.7% | viability, T/C [8] 10.9% | viability, T/C [9] 12% | viability, T/C [10] 15.7% | viability, T/C [11] 13.9% | viability, T/C [12] 15.6% | viability, T/C [13] 10.2% | viability, T/C [14] 11.3% | viability, T/C [15] 11% | viability, T/C [16] 12.2% | viability, T/C [17] 10.6% | viability, T/C [18] 13.5% | viability, T/C [19] 10.9% | viability, T/C [20] 10.5% | viability, T/C [21] 11.3% | viability, T/C [22] 10.7% | viability, T/C [23] 11.1% | viability, T/C [24] 15.2% | viability, T/C [25] 10.8% | viability, T/C [26] 11.3% | viability, T/C [27] 10.3% | viability, T/C [28] 11.4% | viability, T/C [29] 12.7% | viability, T/C [30] 15.8% | viability, T/C [31] 13.8% | viability, T/C [32] 11.1% | viability, T/C [33] 11.2% | viability, T/C [34] 14.1% | viability, T/C [35] 16.6% | viability, T/C [36] 16.4%
> 10000 nM: IC50 (second compound 0.0316 µM)
< 31.6 nM: IC50 (second compound 0.1 µM) | IC50 (second compound 0.316 µM) | IC50 (second compound 1 µM) | IC50 (second compound 3.16 µM) | IC50 (second compound 10 µM)

COC1C=CCC(C)C(C)S(=O)(=O)NC(=O)c2ccc3c(c2)N(CC2CCC21)CC1(CCCc2cc(Cl)ccc21)CO3 (stereo unspecified) + CNC(=O)c1ccc(Nc2nc(OC3CCCC3)c3c(-c4ccc5nc(C)oc5c4)c[nH]c3n2)c(OC)c1
4280 nM: IC50 (second compound 0.0316 µM)
active: viability, T/C [6] 4.89% | viability, T/C [10] 15.2% | viability, T/C [11] 9.14% | viability, T/C [12] 2.12% | viability, T/C [16] 8.54% | viability, T/C [17] 6.49% | viability, T/C [18] 5.35% | viability, T/C [21] 9.61% | viability, T/C [22] 8.8% | viability, T/C [23] 6.45% | viability, T/C [24] 5.97% | viability, T/C [26] 12.1% | viability, T/C [27] 10.3% | viability, T/C [28] 7.26% | viability, T/C [29] 6.87% | viability, T/C [30] 11.6% | viability, T/C [34] 8.44% | viability, T/C [35] 8.98% | viability, T/C [36] 9.48%
inactive: viability, T/C [1] 56.2% | viability, T/C [2] 70.6% | viability, T/C [3] 81.3% | viability, T/C [4] 83% | viability, T/C [5] 66.2% | viability, T/C [7] 13% | viability, T/C [8] 13.1% | viability, T/C [9] 12.5% | viability, T/C [13] 12.3% | viability, T/C [14] 11.6% | viability, T/C [15] 11.9% | viability, T/C [19] 12.7% | viability, T/C [20] 11.2% | viability, T/C [25] 11.9% | viability, T/C [31] 13.3% | viability, T/C [32] 13.5% | viability, T/C [33] 10.2%
< 31.6 nM: IC50 (second compound 0.1 µM) | IC50 (second compound 0.316 µM) | IC50 (second compound 1 µM) | IC50 (second compound 3.16 µM) | IC50 (second compound 10 µM)
